Laboratory results taken from paper PMC6389962 (Nature Communications, 2019).
Where two headings read alike, the source gives them in different places. Starred links: 1 amine or outer side, 2 acyl side, 3 side chain; linkers in the order of their positions; H or OH if unused. Positions of bridges follow the written chain, without caps; N, C: chain ends. Residues, ends and D or L forms follow the SMILES beside them. Chains are numbered I, II in the order given. X4 = C[C@@H](CNC(=O)N[C@@H](C)CNC(=O)[*:2])NC(=O)NC[C@H](CCC(=O)O)N[*:1]; X1 = C[C@@H](CNC(=O)N[C@@H](C)CNC(=O)[*:2])NC(=O)NC[C@H](C)N[*:1]

Experiments:
mouse GLP-1 receptor [1] = molecular target: T1, mouse GLP-1 receptor (Mus musculus, UniProt O35659); test: cell-based; conditions: for Emax: 14: experiment 1
T1 sequence (O35659 22-463): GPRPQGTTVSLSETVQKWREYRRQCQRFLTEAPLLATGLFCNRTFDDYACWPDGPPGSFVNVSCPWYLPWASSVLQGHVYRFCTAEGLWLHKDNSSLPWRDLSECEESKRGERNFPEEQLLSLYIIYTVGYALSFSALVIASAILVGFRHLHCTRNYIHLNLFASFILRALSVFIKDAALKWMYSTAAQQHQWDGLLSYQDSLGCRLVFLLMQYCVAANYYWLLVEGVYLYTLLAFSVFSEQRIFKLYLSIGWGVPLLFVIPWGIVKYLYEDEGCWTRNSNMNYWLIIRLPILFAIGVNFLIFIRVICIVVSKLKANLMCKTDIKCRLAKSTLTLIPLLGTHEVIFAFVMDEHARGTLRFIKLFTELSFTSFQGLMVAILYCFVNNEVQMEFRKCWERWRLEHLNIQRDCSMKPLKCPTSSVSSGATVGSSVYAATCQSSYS

mouse GLP-1 receptor [2] = molecular target: T1, mouse GLP-1 receptor; conditions: for Potency (%), percentage of potency compare to GLP-1-G^2: cAMP production, from EC50
normal mice (C57BL/6J) = test: Blood glucose study in normal fed mice; format: in vivo, mouse; parameters: key to In vivo activity (indicator): + active; +++: + + + more active; conditions: for effect on blood glucose concentration: normal fed C57BL/6J mice, n = 3, 5 μg per mouse (50 nmol kg−1) i.v., monitored 6 h
Method: In the first study, we evaluated the effect of the analogues on the blood glucose concentration of normal mice (Fig. 3). The fed mice were treated with the analogues and their blood glucose concentration was monitored before and after dosing for 6 h. […] Indeed, a decrease of blood glucose concentration is observed after 30 min and the effect is preserved for 4 h after dosing.
Fig. 3 Blood glucose study in mice. a–c Blood glucose concentration in normal mice (C57BL/6J, male, 20–25 g, n = 3) before and after dosing: 5 μg per mouse (50 nmol kg^−1) i.v. Formulation: 20 μg mL^−1 in PBS 1×. The dosing was done at T0. Data are mean ± SEM. […] Source data are provided as a Source Data file
After the acclimation period (at least 5 days), mice (male C57BL/6J mice (Charles River laboratories) 8 weeks old, 20–25 g) were randomized into 10 groups (n = 3 per group) according to their body weight. They were acutely treated via i.v. route at 10 am (5 µg per mouse). Blood glucose was measured before dosing and at 30 min, 1, 2, 4, 6 h after dosing in fed conditions.

in vitro = conditions: mouse, plasma, pH 7.4, % remaining analogue
Method: The oligomer was then diluted 1/50 with a solution of plasma/PBS pH 7.4 (1:1) to afford a final concentration of 5 µM and incubated at 37 °C (4 µL of the stock solution was diluted with 196 µL of plasma/PBS, pH 7.4, 1:1). Each compound was also incubated in the absence of plasma (196 µL of H2O/PBS, pH 7.4, 1:1). At the indicated time (20 min and 60 min) an aliquot of 70 µL was removed from each experimental reaction and pipetting into 175 µL of acetonitrile at 0 °C to quench the reaction (t = 0 min was determined using the reaction without plasma). The samples were frozen at –80 °C before analysis. The frozen samples were defrosted, stirred with a vortex 5 min and finally centrifuged 5 min at 16 °C (1500 × g). The supernatant was analysed by LC-MS. The time course of oligomer degradation was determined by integrating the area of the peak in the extracted ion chromatogram.
Supplementar y Figur e 2 : Mouse plasma degradation assay. […] Data are
mean ± SEM, n = 4. Source data are provided as a Source Data file (T able 2 tab).
Supplementar y Figur e 3.
Data are mean ± SEM, n = 3.
Source data are provided as a Source Data file […]

[3] = read-out: Top (best-fit value), variable slope four-parameter fit, unconstrained

| EC50 (mouse GLP-1 receptor [1]) | Emax (mouse GLP-1 receptor [1]; [3]) | LogEC50 (best-fit value) (mouse GLP-1 receptor [2]) | Potency (%), percentage of potency compare to GLP-1-G^2 (mouse GLP-1 receptor [2]) | remaining at 20 min, 5 µM (in vitro) | remaining at 1 h, 5 µM (in vitro) | Emax (mouse GLP-1 receptor [1]; read-out: Top (best-fit value), fit with BOTTOM = 0%) | SMILES | In vivo activity (indicator) (normal mice (C57BL/6J); mice, 50 nmol kg−1 i.v.) | effect on blood glucose concentration (normal mice (C57BL/6J)) |
| --- | --- | --- | --- | --- | --- | --- | --- | --- | --- |
| 1.6 nM | 89.4% | -8.806 | 15% | 55% | 33.6% |  | CC[C@H](C)[C@H](NC(=O)[C@H](Cc1ccccc1)NC(=O)[C@H](CCC(=O)O)NC(=O)[C@H](CCCCN)NC(=O)[C@H](C)NC(=O)[C@H](C)NC(=O)[C@H](CCC(N)=O)NC(=O)CNC(=O)[C@H](CCC(=O)O)NC(=O)NC[C@H](C)NC(=O)NC[C@H](Cc1ccc(O)cc1)NC(=O)NC[C@H](C)NC(=O)[C@@H](NC(=O)[C@H](CC(=O)O)NC(=O)[C@H](CO)NC(=O)[C@@H](NC(=O)[C@H](Cc1ccccc1)NC(=O)[C@@H](NC(=O)CNC(=O)[C@H](CCC(=O)O)NC(=O)CNC(=O)[C@@H](N)Cc1c[nH]cn1)[C@@H](C)O)[C@@H](C)O)C(C)C)C(=O)N[C@@H](C)C(=O)N[C@@H](Cc1c[nH]c2ccccc12)C(=O)N[C@@H](CC(C)C)C(=O)N[C@H](C(=O)N[C@@H](CCCCN)C(=O)NCC(=O)N[C@@H](CCCNC(=N)N)C(=O)NCC(N)=O)C(C)C [compound 5, GG2[A^uY^uA^u]^11-14] | + | showed efficacy but no improvement |
|  |  | -8.721 | 13% | 44.7% | 31.1% |  | CC[C@H](C)[C@H](NC(=O)[C@H](Cc1ccccc1)NC(=O)[C@H](CCC(=O)O)NC(=O)[C@H](CCCCN)NC(=O)[C@H](C)NC(=O)NC[C@H](C)NC(=O)NC[C@H](C)NC(=O)NC[C@H](CCC(=O)O)NC(=O)[C@H](CC(C)C)NC(=O)[C@H](Cc1ccc(O)cc1)NC(=O)[C@H](CO)NC(=O)[C@H](CO)NC(=O)[C@@H](NC(=O)[C@H](CC(=O)O)NC(=O)[C@H](CO)NC(=O)[C@@H](NC(=O)[C@H](Cc1ccccc1)NC(=O)[C@@H](NC(=O)CNC(=O)[C@H](CCC(=O)O)NC(=O)CNC(=O)[C@@H](N)Cc1c[nH]cn1)[C@@H](C)O)[C@@H](C)O)C(C)C)C(=O)N[C@@H](C)C(=O)N[C@@H](Cc1c[nH]c2ccccc12)C(=O)N[C@@H](CC(C)C)C(=O)N[C@H](C(=O)N[C@@H](CCCCN)C(=O)NCC(=O)N[C@@H](CCCNC(=N)N)C(=O)NCC(N)=O)C(C)C [compound 11, GG2[E^uA^uA^u]^15-18] (I: H-HGEGTFTSDVSSYL / II: AKEFIAWLVKGRG-NH2; linker I:C-II:N via X4) |  |  |
| 62 nM |  |  | 0.4% |  | 41.6% | 228% | CC[C@H](C)[C@@H](CNC(=O)N[C@@H](C)CNC(=O)N[C@@H](CC(C)C)C(=O)N[C@H](C(=O)N[C@@H](CCCCN)C(=O)NCC(=O)N[C@@H](CCCNC(=N)N)C(=O)NCC(N)=O)C(C)C)NC(=O)N[C@@H](CNC(=O)[C@H](CCC(=O)O)NC(=O)[C@H](CCCCN)NC(=O)[C@H](C)NC(=O)[C@H](C)NC(=O)[C@H](CCC(N)=O)NC(=O)CNC(=O)[C@H](CCC(=O)O)NC(=O)[C@H](CC(C)C)NC(=O)[C@H](Cc1ccc(O)cc1)NC(=O)[C@H](CO)NC(=O)[C@H](CO)NC(=O)[C@@H](NC(=O)[C@H](CC(=O)O)NC(=O)[C@H](CO)NC(=O)[C@@H](NC(=O)[C@H](Cc1ccccc1)NC(=O)[C@@H](NC(=O)CNC(=O)[C@H](CCC(=O)O)NC(=O)CNC(=O)[C@@H](N)Cc1c[nH]cn1)[C@@H](C)O)[C@@H](C)O)C(C)C)Cc1ccccc1 [compound 16, GG2[F^uαf^uA^u]^22-25] |  | showed no activity |
| 97 nM | 81.8% | -7.014 | 0.2% |  |  |  | CC[C@H](C)[C@H](NC(=O)[C@H](Cc1ccccc1)NC(=O)[C@H](CCC(=O)O)NC(=O)[C@H](CCCCN)NC(=O)[C@H](C)NC(=O)[C@H](C)NC(=O)[C@H](CCC(N)=O)NC(=O)CNC(=O)[C@H](CCC(=O)O)NC(=O)NC[C@H](C)NC(=O)NC[C@H](C)NC(=O)NC[C@H](C)NC(=O)[C@@H](NC(=O)[C@H](CC(=O)O)NC(=O)[C@H](CO)NC(=O)[C@@H](NC(=O)[C@H](Cc1ccccc1)NC(=O)[C@@H](NC(=O)CNC(=O)[C@H](CCC(=O)O)NC(=O)CNC(=O)[C@@H](N)Cc1c[nH]cn1)[C@@H](C)O)[C@@H](C)O)C(C)C)C(=O)N[C@@H](C)C(=O)N[C@@H](Cc1c[nH]c2ccccc12)C(=O)N[C@@H](CC(C)C)C(=O)N[C@H](C(=O)N[C@@H](CCCCN)C(=O)NCC(=O)N[C@@H](CCCNC(=N)N)C(=O)NCC(N)=O)C(C)C [compound 4, GG2[A^uA^uA^u]^11-14] |  |  |
| 240 nM | 65% | -6.619 | 0.1% |  |  |  | CC[C@H](C)[C@H](NC(=O)[C@H](Cc1ccccc1)NC(=O)[C@H](CCC(=O)O)NC(=O)[C@H](CCCCN)NC(=O)NC[C@H](C)NC(=O)NC[C@H](C)NC(=O)NC[C@H](C)NC(=O)[C@H](CCC(=O)O)NC(=O)[C@H](CC(C)C)NC(=O)[C@H](Cc1ccc(O)cc1)NC(=O)[C@H](CO)NC(=O)[C@H](CO)NC(=O)[C@@H](NC(=O)[C@H](CC(=O)O)NC(=O)[C@H](CO)NC(=O)[C@@H](NC(=O)[C@H](Cc1ccccc1)NC(=O)[C@@H](NC(=O)CNC(=O)[C@H](CCC(=O)O)NC(=O)CNC(=O)[C@@H](N)Cc1c[nH]cn1)[C@@H](C)O)[C@@H](C)O)C(C)C)C(=O)N[C@@H](C)C(=O)N[C@@H](Cc1c[nH]c2ccccc12)C(=O)N[C@@H](CC(C)C)C(=O)N[C@H](C(=O)N[C@@H](CCCCN)C(=O)NCC(=O)N[C@@H](CCCNC(=N)N)C(=O)NCC(N)=O)C(C)C [compound 12, GG2[A^uA^uA^u]^16-19] |  |  |
| 123 nM | 61.5% | -6.91 | 0.2% |  |  |  | CC[C@H](C)[C@H](NC(=O)[C@H](Cc1ccccc1)NC(=O)[C@H](CCC(=O)O)NC(=O)[C@H](CCCCN)NC(=O)[C@H](C)NC(=O)NC[C@H](C)NC(=O)NC[C@H](C)NC(=O)NC[C@H](C)NC(=O)[C@H](CC(C)C)NC(=O)[C@H](Cc1ccc(O)cc1)NC(=O)[C@H](CO)NC(=O)[C@H](CO)NC(=O)[C@@H](NC(=O)[C@H](CC(=O)O)NC(=O)[C@H](CO)NC(=O)[C@@H](NC(=O)[C@H](Cc1ccccc1)NC(=O)[C@@H](NC(=O)CNC(=O)[C@H](CCC(=O)O)NC(=O)CNC(=O)[C@@H](N)Cc1c[nH]cn1)[C@@H](C)O)[C@@H](C)O)C(C)C)C(=O)N[C@@H](C)C(=O)N[C@@H](Cc1c[nH]c2ccccc12)C(=O)N[C@@H](CC(C)C)C(=O)N[C@H](C(=O)N[C@@H](CCCCN)C(=O)NCC(=O)N[C@@H](CCCNC(=N)N)C(=O)NCC(N)=O)C(C)C [compound 10, GG2[A^uA^uA^u]^15-18] (I: H-HGEGTFTSDVSSYL / II: AKEFIAWLVKGRG-NH2; linker I:C-II:N via X1) |  |  |
| 3930 nM | 98.7% | -5.406 | 0.01% |  |  |  | CC(C)C[C@H](NC(=O)[C@H](Cc1ccc(O)cc1)NC(=O)[C@H](CO)NC(=O)[C@H](CO)NC(=O)[C@@H](NC(=O)[C@H](CC(=O)O)NC(=O)[C@H](CO)NC(=O)[C@@H](NC(=O)[C@H](Cc1ccccc1)NC(=O)[C@@H](NC(=O)CNC(=O)[C@H](CCC(=O)O)NC(=O)CNC(=O)[C@@H](N)Cc1c[nH]cn1)[C@@H](C)O)[C@@H](C)O)C(C)C)C(=O)N[C@@H](CCC(=O)O)C(=O)NCC(=O)N[C@@H](CCC(N)=O)C(=O)N[C@@H](C)C(=O)N[C@@H](C)C(=O)N[C@@H](CCCCN)C(=O)N[C@@H](CCC(=O)O)C(=O)N[C@@H](Cc1ccccc1)C(=O)N[C@@H](C)CNC(=O)N[C@@H](C)CNC(=O)N[C@@H](C)CNC(=O)N[C@H](C(=O)N[C@@H](CCCCN)C(=O)NCC(=O)N[C@@H](CCCNC(=N)N)C(=O)NCC(N)=O)C(C)C [compound 17, GG2[A^uA^uA^u]^23-26] |  |  |
